Structures can show the parent of a compound that is named as a salt.
Tested on: mutant SOD1 Tg mice
Assay: ALS model mouse (Tg-G93A SOD1 mouse)
Format: in vivo
Conditions: 5 mg/kg intraperitoneal from 8th week for 5 weeks; mean±SD, n=26 per group; Kaplan-Meier

Structure (SMILES)	disease onset [days]	survival time [days]
COc1cc(Nc2c(C#N)cnc3cc(OCCCN4CCN(C)CC4)c(OC)cc23)c(Cl)cc1Cl [bosutinib (SKI-606), bosutinib]	123.2 ± 9.1	164.1 ± 9.4

Tested on: mutant SOD1 ALS MNs (ALS1)
Assay: MN survival assay and high content analysis
Format: cell-based, human
Conditions: added to MNs with bosutinib treatment
Method: (§1) iPS cell cells containing LNI cassette were dissociated into single cells using Accutase, and seeded together with 1 μg/ml of doxycycline (TAKARA, Kusatsu, Japan) in N3 medium containing 1 μM retinoic acid, 1 μM SAG, 10 ng/ml BDNF, 10 ng/ml GDNF, and 10 ng/ml NT-3 on a 96 well plate (BD Bioscience) coated with Matrigel. The cells were fixed and stained on days 7 and 14. The number of viable MNs stained with βIII-tubulin was quantified by IN Cell Analyzer 6000 and expressed as the number of day 14/day 7. […] In this assay, therefore, βIII-tubulin positive neurons were defined as MN. Neurite and cell body were detected by optimized fluorescence levels, and the number of cell bodies having neurite was counted as the number of surviving neurons using IN Cell Developer toolbox software 1.9.
Short interfering RNA (siRNA) was purchased from Life Technologies (siRNA ID of Src siRNA 1: s13414; siRNA ID of Src siRNA 2: s13413; siRNA ID of c-Abl siRNA 1: s866; siRNA ID of c-Abl siRNA 2: s864; siRNA ID of mTOR siRNA: s604). Scramble siRNA purchased from Life Technologies was used as a negative control of siRNA. iPS cells were dissociated and plated with dox in a 96 well plate. On day 7, siRNA was transfected with Lipofectamine RNAiMAX (Thermo Fisher Scientific). Viable MN was evaluated 4 days after transfection by immunostaining with βIII-tubulin, followed by analysis with IN Cell Analyzer 6000 and IN Cell Developer toolbox software 1.9.

Structure (SMILES)	effect of autophagy inhibitor on the protective effect of bosutinib in MN survival assay
CCN(CC)CCCC(C)Nc1ccnc2cc(Cl)ccc12 (centres unmarked) [chloroquine]	decreased the protective effect of bosutinib

Same assay, conditions: mutant SOD1 ALS MNs (ALS1); compound added day 7, counted day 14

Structure (SMILES)	MN survival
Cc1ccc(NC(=O)c2ccc(CN3CCN(C)CC3)cc2)cc1Nc1nccc(-c2cccnc2)n1 [imatinib]	increased MN survival
Cc1cn(-c2cc(NC(=O)c3ccc(C)c(Nc4nccc(-c5cccnc5)n4)c3)cc(C(F)(F)F)c2)cn1 [nilotinib]	increased MN survival

Tested on: MNs with mutant SOD1 gene (L144FVX)
Assay: Large scale screen using ALS MN (MN survival readout)
Format: cell-based, human
Conditions: 50 μM, positive control assays
Method: as §1
iPS cell cells containing LNI cassette were dissociated into single cells using Accutase, and seeded together with 1 ng/ml of doxycycline in N3 medium containing 1 μM RA, 1 μM SAG, 10 ng/ml BDNF, 10 ng/ml GDNF and 10 ng/ml NT-3 on a 96 well plate (BD Bioscience) coated with Matrigel. The libraries used for drug screening were Microsource US Drugs (Microsource Discovery Systems), Microsource International Drugs (Microsource Discovery Systems), and kinase inhibitor purchased from EMD and Selleck Chemicals. Using Integrity and Nextbio data base, existing drugs and test drugs in clinical trials were selected from these libraries and used for throughput screening. […] DMSO was used as a negative control, and kenpaullone, which is a candidate drug for ALS treatment, was used as a positive control. The number of viable MNs stained with βIII-tubulin was quantified by IN Cell Analyzer 6000.

Structure (SMILES)	positive control effect on ALS MN survival
O=C1Cc2c([nH]c3ccc(Br)cc23)-c2ccccc2N1 [kenpaullone]	positive effect was confirmed

Same assay, conditions: compounds at final concentration 10 μM added on day 7, cells fixed and stained on day 14; viable MNs stained with βIII-tubulin

Structure (SMILES)	MN index
O=C(O)CCC(=O)c1ccc(-c2ccccc2)cc1 [fenbufen]	7.224
COCCNCc1ccc(-c2cc3nccc(Oc4ccc(NC(=S)NC(=O)Cc5ccc(F)cc5)cc4F)c3s2)nc1 [MGCD-265]	7.623
CCN(CC)Cc1cc(Nc2ccnc3cc(Cl)ccc23)ccc1O [amodiaquine dihydrochloride]	8.98
Cc1ccc(Nc2nccc(N(C)c3ccc4c(C)n(C)nc4c3)n2)cc1S(N)(=O)=O [pazopanib hydrochloride]	9.533
CCOc1ccn(-c2ccc(F)cc2)c(=O)c1C(=O)Nc1ccc(Oc2ccnc(N)c2Cl)c(F)c1 [BMS 777607]	8.551
COc1ccc2c(c1OC)C(=O)O[C@@H]2[C@H]1c2cc3c(cc2CCN1C)OCO3 [hydrastine (1R, 9S)]	7.525
COc1cc2nccc(Oc3ccc(NC(=O)Nc4cc(C)on4)c(Cl)c3)c2cc1OC [tivozanib]	17.26
Oc1ccc(O)cc1 [hydroquinone]	7.957
Cc1c(C)c2c(c(C)c1O)CCC(C)(CCCC(C)CCCC(C)CCCC(C)C)O2 (stereo not drawn) [alpha-tochopherol]	9.456
CC1(C)O[C@@H]2C[C@H]3[C@@H]4C[C@H](F)C5=CC(=O)C=C[C@]5(C)[C@H]4[C@@H](O)C[C@]3(C)[C@]2(C(=O)CO)O1 [flunisolide]	7.857
Cc1cc2nc3c(=O)[nH]c(=O)nc-3n(C[C@H](O)[C@H](O)[C@H](O)CO)c2cc1C [riboflavin]	9.554
CCCCOC(=O)c1ccc(N)cc1 [butamben]	7.391
C[C@@H](Oc1cc(-c2cnn(C3CCNCC3)c2)cnc1N)c1c(Cl)ccc(F)c1Cl [PF-2341066]	7.595
O=C(/C=C/C=C/c1ccc2c(c1)OCO2)N1CCCCC1 [piperine]	7.391
CNC(=O)c1ccccc1Sc1ccc2c(/C=C/c3ccccn3)n[nH]c2c1 [axitinib]	7.353
O=C(c1ccc(/C=C/c2n[nH]c3ccccc23)cc1)N1CCNCC1 [KW 2449]	7.722
CN1CCc2cccc3c2[C@H]1Cc1ccc(O)c(O)c1-3 [apomorphine hydrochloride]	7.257
Cc1nc(Nc2ncc(C(=O)Nc3c(C)cccc3Cl)s2)cc(N2CCN(CCO)CC2)n1 [dasatinib]	6.659
Cn1cc(C2=C(c3cn(C4CCN(Cc5ccccn5)CC4)c4ccccc34)C(=O)NC2=O)c2ccccc21 [enzastaurin]	9.841
Cc1nc(N)sc1-c1ccnc(Nc2ccc(N3CCOCC3)cc2)n1 [CYC116]	8.142
CCN(CCCCOC(=O)c1ccc(OC)c(OC)c1)C(C)Cc1ccc(OC)cc1 (centres unmarked) [mebeverine hydrochloride]	6.856
Cc1cc(Nc2cc(N3CCN(C)CC3)nc(Sc3ccc(NC(=O)C4CC4)cc3)n2)n[nH]1 [VX-680]	9.578
COc1cc(Nc2c(C#N)cnc3cc(OCCCN4CCN(C)CC4)c(OC)cc23)c(Cl)cc1Cl [bosutinib (SKI-606), bosutinib]	7.196
CN(C)CCCn1cc(C2=C(c3c[nH]c4ccccc34)C(=O)NC2=O)c2ccccc21 [bisindolylmaleimide I]	7.963
CCCC1O[C@@H]2C[C@H]3[C@@H]4CCC5=CC(=O)C=C[C@]5(C)[C@H]4[C@@H](O)C[C@]3(C)[C@]2(C(=O)CO)O1 (some centres unmarked) [budesonide]	10.27
CCN(CC)CCNC(=O)c1c(C)[nH]c(/C=C2\C(=O)Nc3ccc(F)cc32)c1C [sunitinib malate]	8.133

Reference: patent US20200368267A1, “PROPHYLACTIC AND/OR THERAPEUTIC AGENT FOR AMYOTROPHIC LATERAL SCLEROSIS” (KYOTO UNIVERSITY, priority 2017, published 2020)
